According to the supplement of paper PMC10307832:

What was measured:
Assay in all cases: relative viability (nuclei count vs DMSO), 5 days (fraction); higher = more cells survive
IPA-3 + Linsitinib = compound: C1=CC=C2C(=C1)C=CC(=C2SSC3=C(C=CC4=CC=CC=C43)O)O [IPA-3] + C[C@]1(O)C[C@@H](c2nc(-c3ccc4ccc(-c5ccccc5)nc4c3)c3c(N)nccn32)C1 [Linsitinib] (partner 1 µM)
Summary of the method: (§1)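 Medians of duplicate plates are given as relative viability. That measure is the nuclei count in treated wells divided by the count in vehicle wells. Counts were taken on 4× images of lung cancer cell lines in 1536-well plates, 5 days after pin-tool dosing the day after seeding with one drug alone or a fixed anchor-drug dose plus five library-drug doses (not always all listed) in √10 steps.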

RAF265 + Bortezomib = compound: Cn1c(Nc2ccc(C(F)(F)F)cc2)nc2cc(Oc3ccnc(-c4ncc(C(F)(F)F)[nH]4)c3)ccc21 [RAF265] + CC(C)C[C@H](NC(=O)[C@H](Cc1ccccc1)NC(=O)c1cnccn1)B(O)O [Bortezomib] (partner 0.002 µM)
Summary of the method: as §1

IPA-3 + Crizotinib = compound: C1=CC=C2C(=C1)C=CC(=C2SSC3=C(C=CC4=CC=CC=C43)O)O [IPA-3] + C[C@@H](Oc1cc(-c2cnn(C3CCNCC3)c2)cnc1N)c1c(Cl)ccc(F)c1Cl [Crizotinib] (partner 1 µM)
Summary of the method: as §1

IPA-3 + Decitabine = compound: C1=CC=C2C(=C1)C=CC(=C2SSC3=C(C=CC4=CC=CC=C43)O)O [IPA-3] + Nc1ncn([C@H]2C[C@H](O)[C@@H](CO)O2)c(=O)n1 [Decitabine] (partner 2 µM)
Summary of the method: as §1

Row | Cell Line | relative viability (IPA-3 + Linsitinib; first compound 0.2 µM) | relative viability (IPA-3 + Linsitinib; first compound 0.6325 µM) | relative viability (IPA-3 + Linsitinib; first compound 2 µM) | relative viability (IPA-3 + Linsitinib; first compound 6.325 µM) | relative viability (IPA-3 + Linsitinib; first compound 20 µM) | relative viability (RAF265 + Bortezomib; first compound 0.01 µM) | relative viability (RAF265 + Bortezomib; first compound 0.03162 µM) | relative viability (RAF265 + Bortezomib; first compound 0.1 µM) | relative viability (RAF265 + Bortezomib; first compound 0.3162 µM) | relative viability (RAF265 + Bortezomib; first compound 1 µM) | relative viability (IPA-3 + Crizotinib; first compound 0.2 µM) | relative viability (IPA-3 + Crizotinib; first compound 0.6325 µM) | relative viability (IPA-3 + Crizotinib; first compound 2 µM) | relative viability (IPA-3 + Crizotinib; first compound 6.325 µM) | relative viability (IPA-3 + Crizotinib; first compound 20 µM) | relative viability (IPA-3 + Decitabine; first compound 0.2 µM) | relative viability (IPA-3 + Decitabine; first compound 0.6325 µM) | relative viability (IPA-3 + Decitabine; first compound 6.325 µM) | relative viability (IPA-3 + Decitabine; first compound 20 µM) | relative viability (IPA-3 + Decitabine; first compound 2 µM)
1 | NCI-H1792 | 0.626 | 0.449 | 0.693 | 0.518 | 0.666 | 0.985 | 0.889 | 0.905 | 0.837 | 0.574 | 1.14 | 1.01 | 1.01 | 0.996 | 1.16 | 0.72 | 0.46 | 0.492 | 0.568 | –
2 | NCI-H1915 | 1.12 | 1.13 | 1.11 | 1.08 | 1.09 | 0.96 | 0.95 | 0.887 | 0.816 | 0.417 | 1.02 | 0.905 | 0.923 | 0.867 | 0.949 | 0.277 | 0.279 | 0.262 | 0.245 | 0.248
3 | NCI-H1975 | 1.06 | 1.01 | 1.02 | 1.03 | 1.09 | 0.46 | 0.342 | 0.334 | 0.322 | 0.229 | 1.21 | 0.896 | 0.968 | 0.883 | 0.952 | 0.472 | 0.368 | 0.398 | 0.356 | 0.357
4 | NCI-H1993 | 0.707 | 0.688 | 0.761 | 0.782 | 0.612 | 1.06 | 0.941 | 1.09 | 1.01 | 0.795 | 0.71 | 0.811 | 0.885 | 0.889 | 0.998 | 0.611 | 0.576 | 0.547 | 0.615 | 0.643
5 | NCI-H2009 | 1.26 | 1.17 | 1.24 | 1.13 | 1.18 | 1.05 | 0.981 | 0.905 | 0.899 | 0.657 | 1.12 | 1 | 1.04 | 0.915 | 0.924 | 0.38 | 0.353 | 0.395 | 0.312 | 0.444
6 | NCI-H2023 | 0.85 | 0.681 | 0.841 | 0.735 | 0.921 | 1.07 | 1.08 | 1.07 | 0.786 | 0.794 | 0.714 | 0.58 | 0.809 | 0.735 | 0.893 | 0.233 | 0.225 | 0.216 | 0.2 | 0.209
7 | NCI-H2085 | 0.923 | 0.954 | 0.856 | 0.992 | 1.21 | 1.1 | 0.985 | 1.14 | 1.1 | 0.987 | 0.89 | 0.912 | 0.876 | 0.931 | 0.995 | 0.58 | 0.568 | 0.502 | 0.459 | 0.56
8 | NCI-H2087 | 1.1 | 1.05 | 0.925 | 0.86 | 0.995 | 0.772 | 0.718 | 0.804 | 0.621 | 0.714 | 0.955 | 0.755 | 0.9 | 0.791 | 0.957 | 0.344 | 0.321 | 0.261 | 0.255 | 0.267
